From paper PMC2585100 (Retrovirology, 2008)
Like-named read-outs stand apart in the source and are kept apart here.

Assays:
[1] = test system: HIV-1JRCSF (R5 virus); assay type: cell-based; details: PBMC, peptide at 1 μM
Experimental: (§1) Neutralization of HIV-1 infectivity for PBMC was performed as previously described by analysing intracellular staining of p24 Ag after a single round of infection. […] PHA-stimulated PBMC (25 μl, 2 × 10^5 cells/well) were added to the mixture. After overnight incubation, 100 μl of culture medium containing 20 U/ml of IL-2 were added and cells were cultured for an additional 24 h at 37°C. For intracellular p24 Ag staining, cells were fixed with 4% paraformaldehyde for 20 min, permeabilized with 0.05% saponin and stained with a fluorescent anti-p24 mAb (PE-anti-p24, KC57 clone, Beckman Coulter, Hialeah, FL) as a 1/160 dilution in 1% BSA, 0.05% saponin in PBS (pH = 7.4) for 15–20 min at 4°C. The percentage of p24 positive cells was monitored by flow cytometry (FACScalibur with the XL software) by gating 20,000 events on the living cell population identified by forward- and side-scatter parameters.

[2] = test system: primary human CD4+ T cells; test: Binding of peptides to CD4+ target cells (2F5 IgG, flow cytometry), primary cells; details: 1 h at room temperature, RPMI 10% FCS, micro-molar range
Experimental: (§2) Binding of peptides was evaluated using either the lymphocytic cell line CD4^+- CEM-NK^r (NK-resistant) cells (NIH AIDS Reagent Programm, USA)or PHA-activated CD4^+ T cells purified from peripheral blood of 5 healthy donors using human CD4^+ T cells enrichment kit (StemCell Technologies Inc., France). 5 × 10^5 cells were incubated with indicated concentrations of peptide for 1 h at room temperature in a total volume of 50 microliter/μl of RPMI 10%FCS. After 2 wahses in cold medium, bound peptide was detected with the human IgG 2F5 (10 microg/μg), or irrelevant human IgG as control, for 1 h at 37°C followed anti-human IgG-FITC mAb (1:1000, Jackson ImmunoResearch, France). Binding of peptides to CD4^+ cells was evaluated by flow cytometry (FACSCalibur, Becton Dickinson) on 10^4 events, gated by forward and side scatter and analyzed for FL1 (FITC channel) using the Cytomix RXP software.

[3] = test system: T20-resistant HIV-1 strains (ENF-1 and ENF-2); test: Single-cycle infectivity assay, T20-resistant strains, U373MG-CD4-CCR5-LTR-lacZ cells; assay type: cell-based; details: at concentrations as much as 250- to 2000-fold higher than the IC50 of P5
Source text: (§3) We constructed viruses bearing the envelope glycoproteins derived from virus populations present before and during T20 treatment of a patient who received T20 as part of a salvage therapy, as we reported earlier. […] Each chimeric proviral clone was obtained by replacing the AgeI-NheI fragment of a modified pNL4-3 vector (nt 6346 to 8287 in pNL4-3) by a AgeI-NheI PCR fragment amplified from the envelope subclone. Sequences of oligonucleotides used for PCR and site-directed mutagenesis can be provided upon request. […] [29].
(§4) These assays were performed as previously described. Two days before infection, U373MG-CD4-CCR5-LTR-lacZ cells were seeded into 96-well plates at a density of 2,000 cells/well. […] Forty hours after infection, cells were lysed using 100 μl/well of lysis buffer (5 mM MgCl2 and 0.1% NP-40 in 1× phosphate-buffered saline), prior to addition of 100 μl/well of chromogenic substrate (6 mM chlorophenol red-β-D-galactopyranoside; CPRG, Roche) in lysis buffer.

[4] = test system: T20-sensitive HIV-1 strains (pre-ENF and JRCSF); test: Single-cycle infectivity assay, T20-sensitive strains, U373MG-CD4-CCR5-LTR-lacZ cells; assay type: cell-based; details: P5 more potent than T20
Source text: as §3, §4

[5] = test system: HIV-1Lai (X4 virus); test: Neutralization of HIV-1 infection of PBMC, intracellular p24 staining (X4 virus); assay type: cell-based; details: peptide at 1 μM
Experimental: as §1

[6] = test system: CD4+ CEM-NKr lymphocytic cell line; test: Binding of peptides to CD4+ target cells (2F5 IgG, flow cytometry), cell line; parameters: species or system human; details: 1 h at room temperature, RPMI 10% FCS, micro-molar range
Experimental: as §2

[7] = parameters: method as in 2 sources, one per row (each row's own in cited_ref): ref 20 = [20]; PMID 17553560; doi:10.1016/j.ceca.2007.04.011; Yu H Alfsen A Tudor D Bomsel M The binding of HIV-1 gp41 membrane proximal domain to its mucosal receptor, galactosyl ceramide, is structure-dependent Cell Calcium 2008 43 73 82 17553560 10.1016/j.cec ||| ref 36 = [36]; PMID 17276993; doi:10.1074/jbc.M609148200; Liu S Jing W Cheung B Lu H Sun J Yan X Niu J Farmar J Wu S Jiang S HIV gp41 C-terminal heptad repeat contains multifunctional domains. Relation to mechanisms of action of anti-HIV peptides J Biol Chem; details: Table 1, left column; cited from earlier work
[8] = Far-UV circular dichroism, α-helical content; assay type: physicochemical; details: 10 μM in PBS
Experimental: Far-UV circular dichroism (CD) was performed using 10 μM of each peptide solution in PBS. Each spectrum was recorded from 260 nm to 190 nm at 25°C by using a Jasco CD spectrophotometer (Jasco, Japan) with a cell path length of 0.05 cm. Spectra were collected as an average of three scans, with a scan speed of 20 nm/min and a response time of 2 sec. The control (solvent) CD spectra were subtracted to eliminate background effects. Data were reported in millidegrees and converted to molar ellipticity [θ] in units as follows: degree cm^2 dmol^-1. The percentage of α-helical content was estimated by assuming that a [θ]222 value of -33000 deg cm^2 dmol^-1corresponds to 100% α-helix.
CD spectroscopy is a practical and efficient method for secondary structure characterization of a protein or peptide.
Far-UV CD spectra were all recorded at room temperature, with a path-length of 0.05 cm. Peptide concentration was 10 microM in PBS, pH 7.2.

[9] = test system: HIV-Lai env mediated fusion of Hela-env-Lai cells with HeLa P4.2 (Hela-CD4-LTR-LacZ) cells; test: HIV-1 env-mediated cell-to-cell fusion assay (β-galactosidase read-out); assay type: cell-based; details: for IC50: 6 h co-culture at 37°C, DMEM with calcium, others chemically synthesized; for inhibition of cell-cell fusion: peptide at 1 μM
Experimental: Fifteen minutes later, target cells (HeLa P4.2) were added to the wells (10^5 per well) and co-cultured for 6 h at 37°C. Then, cell-cell fusion was monitored by beta-galactosidase assay. Briefly, cells were lysed in 80 μl of lysis buffer (5% NP40 in PBS without CaCl2 and MgCl2) for 10 min and then centrifuged at 10,000 g for 5 min at 4°C. Equal volumes (50 μl) of lysate and reaction buffer (120 mM Na2HPO4, 80 mM NaH2PO4, 2 mM MgSO4, 20 mM KCl, 10 mM β-mercaptoethanol, 16 mM CPRG (chlorophenol red-β-D-galactopyranoside, Roche, France) were combined and incubated for 60 min at room temperature in the dark. The absorbance at 590 nm of each sample was measured.
Cell fusion experiments are convenient assays for analysis of the mechanism by which peptides inhibit virus entry into host cells. Hela-CD4-LTR-LacZ (P4.2) cells stably express the human CD4 molecule, CXCR4 and long terminal repeat (LTR) driven lacZ gene. Hela-env-Lai cells stably express HIV-Lai envelope glycoproteins gp120 and gp41, and the HIV-1 transactivator Tat. Fusion of Hela-Env-Lai cells and P4.2 cells results in transferring Tat to P4.2 cell cytosol. Tat in turn, transactivates the LTR and initiates transcription of the lacZ gene. The extent of fusion is directly related to β-galactosidase activity in cell lysates.
Different concentrations (≤ 1 μM) of peptides were incubated with HeLa-env-Lai cells in culture medium (DMEM) that contained calcium and magnesium, prior to addition of the P4.2 cells.

| Substance | inhibitory activity, R5 virus infection [1] | binding to primary human CD4+ T cells (in words) [2] | inhibition of T20-resistant strains (in words) [3] | activity against T20-sensitive strains (in words) [4] | inhibitory activity, X4 virus infection ([5]; PBMC) | inhibition of PBMC infection by X4 virus (in words) ([5]; human PBMC, HIV-Lai) | binding to CD4+ lymphocyte cell line CEM (in words) [6] | [θ]222 [7] | [θ]222 ([8]; Table 1, chemically synthesized peptides alone or with LZ) | IC50 ([9]; Table 2, right column, alone or in the presence of LZ, P7 recombinant, read-out: IC50 (nM, Mean ± S.D.)) [nM] | inhibition of cell-cell fusion [9] | [θ]222 ([8]; Table 1, left column, chemically synthesized peptides alone or with N36) | IC50 ([9]; Table 2, left column, peptides 50 to 1000 nM, P5L recombinant, read-out: IC50g (nM, Mean ± S.D.)) [nM] |
| --- | --- | --- | --- | --- | --- | --- | --- | --- | --- | --- | --- | --- | --- |
| Enfuvirtide | greater than 90% | unable to bind | failed to inhibit | active | greater than 90% | potent inhibition | unable to bind | -2 10^-3deg cm^2dmol^-1 | – | – | – | – | – |
| LZ: peptide comprising the gp41 N-terminal leucine zipper domain, a.a. 560–594 (EAQQHLLQLTVWGIKQLQARILAVERYLKDQQLLG; gp41; UniProt P04578 560-594, looked up, fragment) | – | – | – | – | – | – | – | – | -4 10^-3deg cm^2dmol^-1 | > 1000 | negligible inhibition | – | – |
| N36: gp41 NHR peptide a.a. 546–581, from the AIDS Research and Reference Reagent Program [Peptide N36] | – | – | – | – | – | – | – | – | – | – | negligible inhibition | -6 10^-3deg cm^2dmol^-1 | > 1000 |
